# Source: the OPERA property sets (Mansouri et al. 2018)
# Where a SMILES comes first, the peptide text is derived from it.
# Conditions: not given
SMILES,logP,solubility [mM]
CC(C)c1ccc(C=[N+]([O-])c2ccccc2)cc1,3.37,–
CCCN(CC1CC1)c1c([N+](=O)[O-])cc(C(F)(F)F)cc1[N+](=O)[O-],5.58,–
CC(C)Cc1ccc(C(C)(O)C(=O)O)cc1 (centres undefined),2.75,–
CCOC(=O)c1ccccc1O,2.95,–
CC(=O)N[C@@H](Cc1ccc(O)cc1)C(=O)O,1.32,–
CCCCC1CO1 (centres undefined),1.95,–
c1ccc(N=Nc2ccccc2)cc1,–,0.0351
CCCCn1ccc(=O)c(O)c1,0.72,–
CN1CCCC1=O,-0.38,–
Oc1c(Cl)ccc(Cl)c1Cl,–,2.28
C#CCN1C(=O)COc2cc(F)c(N3C(=O)C4=C(CCCC4)C3=O)cc21,2.55,–
COc1c(O)cc(C)c(O)c1OC,1.05,–
CCCCN(CC)N=O,1.63,–
CCCCCOC(=O)c1ccccc1C(=O)OCCCCC,5.62,–
CSc1ccc2oc(N(N)CCC#N)nc2c1,1.5,–
N[C@@H](Cc1ccc(O)c(O)c1)C(=O)OCCc1ccccc1,1.76,–
OC(CN1C2CCCCC21)Cn1ccnc1 (centres undefined),1.07,–
CCCC[N+](C)(CCCC)CCCC.[I-],0.26,–
CCCCCCCCCCCC,6.1,–
C[C@@H]1CC[C@H](C)O1,1.22,–
Cc1cc(C)c(C#[N+][O-])c(C)c1,3.21,–
CCNc1nc(NC(C)C)nc(OC)n1,2.69,–
CCCCCCOC(=O)c1cccnc1,3.51,–
CC(C)(O)C(=O)Nc1ccc([N+](=O)[O-])cc1,1.61,–
Brc1ccc(O[Si]23OCCN(CCO2)CCO3)cc1,0.58,–
CCOc1ccc([N+](=O)[O-])cc1NC(=O)CC,1.85,–

SMILES,logP,solubility [mM]
COc1cc(Cl)c(Cl)c(Cl)c1,4.22,–
c1ccc2c(c1)sc1ccccc12,–,0.00798
c1ccc2cc3cc4c(ccc5ccccc54)cc3cc2c1,6.81,–
Brc1cc(Br)c(Br)c(-c2c(Br)c(Br)cc(Br)c2Br)c1Br,5.5,–
CCC1(C2=CCCCCC2)C(=O)NC(=O)N(C)C1=O (centres undefined),2.82,–
Cc1cc(Cl)c(Cc2cc(Cl)ccc2Cl)cc1Cl,7.48,–
O=c1nc[nH]c2c1ncn2[C@@H]1O[C@H](CO)C[C@@H]1F,-1.21,–
CN(C)c1cccc([N+](=O)[O-])c1,2.16,–
CC(C)c1cccc(OP(=O)(Oc2ccccc2)Oc2ccccc2)c1,5.31,–
Cc1cc(C)cc(NCc2cnc3nc(N)nc(N)c3c2C)c1,2.11,–
Cc1cc(OCCNCC2CC(=O)c3ccccc3C2=O)c(C(C)C)cc1O (centres undefined),4.25,–
C=C(C)C1CCC(C)(O)C1C (centres undefined),2.87,–
CC(=O)N[C@H](C(=O)N[C@@H](C)C(N)=O)C(C)C (Ac-Val-Ala-NH2),-1.14,–
Cc1cc(=O)oc2cc(C3OC(C(=O)O)C(O)C(O)C3O)ccc12 (centres undefined),-0.39,–
O=C1CCC(=O)N1c1cc(Cl)cc(Cl)c1,1.4,–
CC[C@H](C)C(=O)O[C@H]1C[C@H](O)C=C2C=C[C@H](C)[C@H](CC[C@@H](O)C[C@@H](O)CC(=O)[O-])[C@H]21.[Na+],-0.23,–
CC(C)(C#N)Nc1nc(Cl)nc(NC2CC2)n1,1.99,–
Cc1ccc(OP(=O)(Oc2ccc(C)cc2)Oc2ccc(C)cc2)cc1,–,0.000814
Cc1ccccc1CCN,1.6,–
CC(C)=NNc1ccc([N+](=O)[O-])cc1[N+](=O)[O-],3.05,–
Clc1cccc(-c2c(Cl)ccc(Cl)c2Cl)c1Cl,6.04,–
Cc1ccc2oc(-c3ccccc3C(=O)O)c(Br)c2c1,5.19,–
O=[N+]([O-])c1ccc2c(c1)Cc1cc([N+](=O)[O-])ccc1-2,3.35,–
ClC1=C(Cl)C2(Cl)C3C(Cl)C(Cl)CC3C1(Cl)C2(Cl)Cl (centres undefined),6.16,–
CCOC(=O)OCn1ncc2c(O)ncnc21,0.21,–
Cc1cccc2c1Cc1ccccc1-2,4.97,–

SMILES,logP,solubility [mM]
CS(=O)CCCOc1ccc2ccccc2c1 (centres undefined),2.42,–
Cc1ncc(CO)c(C=O)c1O.Cl,–,2460
ClC1=C(Cl)C2(Cl)C3CC=CC3C1(Cl)C2(Cl)Cl (centres undefined),5.57,–
c1cnc2c(c1)cc1ccc3cccc4ccc2c1c34,5.53,–
CCC/N=C(N)/N=C(\N)Nc1ccc(Cl)cc1,2.63,–
Brc1cccc(-c2ccccc2)c1,4.85,–
COc1ccc2[nH]c3c4ccc(Cl)cc4ncc3c2c1,4.49,–
NC(=O)c1ccccc1NCCCO,0.7,–
COc1c(Cl)ccc(Cl)c1Cl,3.64,–
CCCCOc1ccc([N+](=O)[O-])cc1NC(C)=O,2.26,–
BrCC1CO1 (centres undefined),0.85,–
CCn1cc(C(=O)O)c(=O)c2cc(F)c(N3CCNC(C)C3)c(F)c21 (centres undefined),-0.3,–
COc1ccc([N+](=O)[O-])cc1NC(C)=O,1.6,–
CSc1ccc(C(N)=S)cc1,2.01,–
O=C(O)c1cc[n+]([O-])cc1,–,79.1
Cc1nc(N)c2ncn([C@@H]3O[C@H](CO)C[C@@H]3F)c2n1,0.12,–
CN1CCN(c2c(F)cc3c(=O)c(C(=O)O)cn(CCF)c3c2F)CC1,0.24,–
O=C(O)c1ccc(-c2ccccc2)cc1,3.75,–
OCCC(F)(F)C(F)(F)C(F)(F)C(F)(F)C(F)(F)C(F)(F)C(F)(F)C(F)(F)F,5.58,–
C=CC(=O)OCCOC,0.56,–
CCCCCNC(=O)CCC(NS(=O)(=O)c1ccccc1)C(=O)O (centres undefined),0.03,–
CCCCCCN1CC(C(=O)O)CC1=O (centres undefined),1.6,–
CC1(C)Cc2cccc([N+](=O)[O-])c2O1,3.33,–
COc1ccc(Oc2ccc(NC(=O)N(C)C)cc2)cc1,2.54,–
N#Cc1cc(-c2ccncc2)cnc1NCCCO,1.42,–
O=C(OCn1ncc2c(=O)[nH]cnc21)c1cccnc1,0.27,–

SMILES,logP,solubility [mM]
COc1ccc2cc(CCC(C)=O)ccc2c1,3.08,–
N[C@@H](CSSC[C@H](N)C(=O)O)C(=O)O,-5.08,–
C[Si](C)(C)O[Si](C)(C)O[Si](C)(C)O[Si](C)(C)C,8.21,–
Clc1ccc2c(Cl)c(Cl)c(Cl)c(Cl)c2c1,7,–
O=C(O)c1cc(Oc2ccc(C(F)(F)F)cc2Cl)ccc1[N+](=O)[O-],3.7,–
COc1cc(Cl)c(Cl)c(Cl)c1O,3.72,–
O=C(O)CN(CC(=O)O)Cc1cc2c(c(O)c1O)C(=O)c1ccccc1C2=O,–,15.6
CCCCC(C)=NNC(N)=Nc1ccccc1,2.05,–
CCCC(C)C=O (centres undefined),–,41.9
CCCCCCCCCCCCCCO,6.03,–
ClC1=CC2(Cl)C3CC(Cl)C(Cl)C3C1(Cl)C2(Cl)Cl (centres undefined),5.56,–
COC(=O)c1c[nH]c2ccccc12,2.57,–
CCCCN(C)C(=O)Nc1ccc(Cl)c(Cl)c1,4.1,–
C=CC(N)CCC(=O)O (centres undefined),-2.16,–
Cc1cn([C@H]2C=C[C@@H](CO)O2)c(=O)[nH]c1=S,0.09,–
O=CC=Cc1ccc([N+](=O)[O-])o1,0.96,–
CC(C)(C)OCCO,0.39,–
COc1ccc(C(OC(C)=O)C(Cl)(Cl)Cl)cc1 (centres undefined),3.72,–
Cc1cnc2c(C(=O)O)c(Cl)ccc2c1,0.78,–
O=C(OC1C2C=CC1C=C2)c1ccccc1 (centres undefined),3.03,–
Cc1ccc(S(=O)(=O)CC(=O)c2ccc(Cl)cc2)cc1,3.43,–
Cc1cccc(NC(=O)c2ccccc2C(=O)O)c1,–,3.92
N=C(N)NN=C(c1ccccc1)c1cccs1,1.96,–
CN(C)C(=O)n1nc(C(C)(C)C)nc1SCC(=O)O,1.62,–

# Same assay, conditions: 20 °C
row,SMILES,solubility [mM]
1,Cc1cncc(C)c1,308
2,N=C(N)N,31.1
3,CCNc1nc(NC(C)C)nc(OC)n1,8.52
4,O=C1OC2(c3ccc(O)cc3Oc3cc(O)ccc32)c2ccccc21,0.15
5,CN(C)c1ccncc1,622
6,CCC(CO)[N+](=O)[O-] (centres undefined),453
7,N#Cc1cccnc1,1300
8,Oc1cc(O)c2ccccc2c1,11.2

# Same assay, conditions: 24 °C
row,SMILES,solubility [mM]
1,CCCCN(CC)N=O,92.2
2,CCCN(CCC)N=O,99.9

# Same assay, conditions: 24.0 °C
row,SMILES,log10 OH rate constant (cm³/molecule/s)
1,c1ccc2c(c1)sc1ccccc12,-11.1
2,COc1ccccc1OC,-10.5
3,Clc1ccccc1-c1ccccc1Cl,-11.7

# Same assay, conditions: 25 °C
row,SMILES,solubility [mM]
1,O=C1CCO1,5130
2,O=C1CCC(N2C(=O)c3ccccc3C2=O)C(=O)N1 (centres undefined),2.11
3,OCC#CCO,4340
4,CCCCCCO[N+](=O)[O-],0.747
5,C#CCN1C(=O)COc2cc(F)c(N3C(=O)C4=C(CCCC4)C3=O)cc21,0.00505
6,CON(C)C(=O)Nc1ccc(Cl)c(Cl)c1,0.301
7,CCCCOC(=O)COc1ccc(Cl)cc1Cl,0.166
8,Clc1cccc2cccc(Cl)c12,0.0016
9,CCC(Cl)CC,2.34
10,CCCCO[N+](=O)[O-],9.4
11,ClC1=C(Cl)C2(Cl)C3CCC4C(CCC3C1(Cl)C2(Cl)Cl)C1(Cl)C(Cl)=C(Cl)C4(Cl)C1(Cl)Cl (centres undefined),6.73e-11
12,Cc1c2ccccc2c(C)c2c1ccc1ccccc12,0.000152
13,CC(C)C(O)C(C)(C)CO (centres undefined),130
14,CCCCOCCOC(=O)COc1ccc(Cl)cc1Cl,0.0374
15,Clc1cc2ccccc2cc1Cl,0.00044
16,Clc1ccccc1-c1ccccc1Cl,0.00829
17,ClC1=C(Cl)C2(Cl)C3C(Cl)C(Cl)CC3C1(Cl)C2(Cl)Cl (centres undefined),0.000137
18,O=C(O)c1ccc[n+]([O-])c1,50.3
19,OCC(CO)(CO)COCC(CO)(CO)CO,11
20,COc1cc(Cl)ccc1O,31.5
21,CNC1(c2ccccc2Cl)CCCCC1=O.Cl (centres undefined),729
22,CC1(C)Cc2cccc([N+](=O)[O-])c2O1,0.621
23,C[Si](C)(C)O[Si](C)(C)O[Si](C)(C)O[Si](C)(C)C,2.17e-05
24,CCN(CCO)c1ccccc1,12.1
25,Oc1cc(Cl)cc(Cl)c1,27.6
26,CCCCCCCCCCN,3.5
27,CC(=O)OCC(=O)[C@@]1(O)CC[C@H]2[C@@H]3CCC4=CC(=O)C=C[C@]4(C)[C@H]3[C@@H](O)C[C@@]21C,0.0427

# Same assay, conditions: 25.0 °C
row,SMILES,log10 OH rate constant (cm³/molecule/s)
1,O=CC(F)(Cl)Cl,-11.9
2,OCC(F)(F)C(F)(F)C(F)(F)F,-13
3,COC(=O)CCCC(=O)OC,-11.5
4,CNC(=O)OC,-11.4
5,FC(F)Br,-14
6,c1ccc2[nH]ccc2c1,-9.81
7,FC(F)OC(F)C(F)(F)F (centres undefined),-14.4
8,C=C1CCC2(C(C)C)CC12 (centres undefined),-9.93
9,CCNc1nc(Cl)nc(NC(C)(C)C)n1,-11
10,CC12CCC(CC1)C(C)(C)O2,-11

# Same assay, conditions: 28 °C
row,SMILES,solubility [mM]
1,O=C(O)Cc1c(Cl)ccc(Cl)c1Cl,0.835

# Same assay, conditions: 30 °C
row,SMILES,solubility [mM]
1,CNC(=O)Oc1cccc(C(C)C)c1,0.44
